Species on record: Rattus norvegicus
Test: Open TG-GATES - Regimen: Single
Assay type: toxicity, organism-based, Sprague-Dawley
Design: regimen Single, gender Male, age 6 weeks
Conditions: in vivo, po, route gavage; for gamma-GTP / ALP / ALT / AST / BUN / CRE / Ca / Cl / DBIL / GLC / IP / K / LDH / Na / PL / RALB / TBIL / TG / TP: tissue Plasma; for APTT / Bas / Eos / Fbg / Hb / Ht / Lym / MCH / MCV / Mono / Neu / PT / Plat / RBC / Ret / WBC: tissue Blood; for KIDNEY_L / KIDNEY_R / KIDNEY_TOTAL: tissue Kidney; for LIVER: tissue Liver

## NC(=O)N1c2ccccc2C=Cc2ccccc21 [CARBAMAZEPINE]
0 mg/kg, 24 h, dose level Control
  gamma-GTP: 0.8 IU/L
30 mg/kg, 3 h, dose level Low
  TERMINAL_BW: 214.2 g
  APTT: 19.1 s
  Bas: 0%
  Eos: 1%
  Fbg: 212.2 mg/dL
  Hb: 13.3 g/dL
  Ht: 39.3%
  Lym: 78.2%
  MCH: 21.1 pg
  MCV: 62.4 fL
  Mono: 2.4%
  Neu: 17.8%
  PT: 12.2 s
  Plat: 121.8 x10_4/uL
  RBC: 631.2 x10_4/ul
  Ret: 6.3%
  WBC: 97.3 x10_2/uL
  KIDNEY_L: 0.9 g
  KIDNEY_R: 0.9 g
  KIDNEY_TOTAL: 1.9 g
  LIVER: 9.8 g
  ALP: 896 IU/L
  ALT: 34.8 IU/L
  AST: 66.6 IU/L
  BUN: 12.6 mg/dL
  CRE: 0.4 mg/dL
  Ca: 10.6 mg/dL
  Cl: 103.6 meq/L
  DBIL: 0.072 mg/dL
  GLC: 187.8 mg/dL
  IP: 10.1 mg/dL
  K: 3.9 meq/L
  LDH: 177 IU/L
  Na: 142.4 meq/L
  PL: 143.8 mg/dL
  RALB: 3.3 g/dL
  TBIL: 0.1 mg/dL
  TG: 51.8 mg/dL
  TP: 5.5 g/dL
  gamma-GTP: 0.6 IU/L
30 mg/kg, 6 h, dose level Low
  TERMINAL_BW: 211.1 g
  APTT: 21.9 s
  Bas: 0%
  Eos: 1%
  Fbg: 203.8 mg/dL
  Hb: 13.3 g/dL
  Ht: 38.6%
  Lym: 80.6%
  MCH: 20.9 pg
  MCV: 60.9 fL
  Mono: 2.6%
  Neu: 14.8%
  PT: 12.9 s
  Plat: 126.6 x10_4/uL
  RBC: 634.2 x10_4/ul
  Ret: 6.1%
  WBC: 83.2 x10_2/uL
  KIDNEY_L: 1 g
  KIDNEY_R: 1 g
  KIDNEY_TOTAL: 1.9 g
  LIVER: 9.2 g
  ALP: 896 IU/L
  ALT: 34.4 IU/L
  AST: 66 IU/L
  BUN: 9.6 mg/dL
  CRE: 0.4 mg/dL
  Ca: 10.4 mg/dL
  Cl: 103.2 meq/L
  DBIL: 0.078 mg/dL
  GLC: 197.6 mg/dL
  IP: 9.6 mg/dL
  K: 4 meq/L
  LDH: 194 IU/L
  Na: 140.6 meq/L
  PL: 130.6 mg/dL
  RALB: 3.3 g/dL
  TBIL: 0.1 mg/dL
  TG: 61.6 mg/dL
  TP: 5.5 g/dL
  gamma-GTP: 0.8 IU/L
30 mg/kg, 9 h, dose level Low
  TERMINAL_BW: 210.1 g
  APTT: 18.7 s
  Bas: 0%
  Eos: 0.8%
  Fbg: 216.4 mg/dL
  Hb: 13.1 g/dL
  Ht: 38.3%
  Lym: 75.2%
  MCH: 21.3 pg
  MCV: 62.2 fL
  Mono: 1.6%
  Neu: 21.4%
  PT: 13 s
  Plat: 113.3 x10_4/uL
  RBC: 616.2 x10_4/ul
  Ret: 6.8%
  WBC: 83.2 x10_2/uL
  KIDNEY_L: 1 g
  KIDNEY_R: 1 g
  KIDNEY_TOTAL: 2 g
  LIVER: 8.6 g
  ALP: 814.2 IU/L
  ALT: 31.4 IU/L
  AST: 62.6 IU/L
  BUN: 11.8 mg/dL
  CRE: 0.4 mg/dL
  Ca: 10.3 mg/dL
  Cl: 102 meq/L
  DBIL: 0.076 mg/dL
  GLC: 190.4 mg/dL
  IP: 9.4 mg/dL
  K: 4.1 meq/L
  LDH: 175 IU/L
  Na: 140.4 meq/L
  PL: 137.2 mg/dL
  RALB: 3.3 g/dL
  TBIL: 0.1 mg/dL
  TG: 59.6 mg/dL
  TP: 5.6 g/dL
  gamma-GTP: 0.8 IU/L
30 mg/kg, 24 h, dose level Low
  TERMINAL_BW: 228 g
  APTT: 19.6 s
  Bas: 0%
  Eos: 1%
  Fbg: 205.8 mg/dL
  Hb: 13.4 g/dL
  Ht: 39.6%
  Lym: 78.2%
  MCH: 21.4 pg
  MCV: 63.3 fL
  Mono: 2.4%
  Neu: 18%
  PT: 12.1 s
  Plat: 118 x10_4/uL
  RBC: 626.4 x10_4/ul
  Ret: 5.8%
  WBC: 103.7 x10_2/uL
  KIDNEY_L: 1.1 g
  KIDNEY_R: 1.1 g
  KIDNEY_TOTAL: 2.1 g
  LIVER: 11.2 g
  ALP: 892.6 IU/L
  ALT: 34 IU/L
  AST: 64.6 IU/L
  BUN: 16.2 mg/dL
  CRE: 0.4 mg/dL
  Ca: 10.6 mg/dL
  Cl: 102.4 meq/L
  DBIL: 0.1 mg/dL
  GLC: 214 mg/dL
  IP: 7.7 mg/dL
  K: 4.2 meq/L
  LDH: 198.8 IU/L
  Na: 140.2 meq/L
  PL: 151.2 mg/dL
  RALB: 3.3 g/dL
  TBIL: 0.1 mg/dL
  TG: 99.8 mg/dL
  TP: 5.5 g/dL
